{
  "source": "patent US20020156269A1",
  "about": "“Crystals of diuridine tetraphosphate or salt thereof, process for producing the crystals, and process for producing the compounds” (YAMASA CORPORATION, priority 1998, published 2002)",
  "key": {"[1]": {"assay": "Hygroscopicity: standing for nine days at controlled temperature and relative humidity", "format": "physicochemical", "conditions": "for decomposition or change in weight on standing: initial water content approximately 14%", "description": "U2P4.4Na crystals (octahydrate) having a water content of approximately 14% were allowed to stand for nine days under the following conditions: a) 25° C. and a relative humidity of 57%; b) 25° C. and a relative humidity of 75%; and c) 40° C. and a relative humidity of 75%. […] The crystals have proven to be stable and to have no hygroscopicity. U2P4.4Na crystals (tetrahydrate) having a water content of approximately 8% were allowed to stand for nine days under conditions of 40° C. and a relative humidity of 75%. In this case, the water content increased to 14-15%."}, "[2]": {"assay": "Stability: acceleration test in sealed bottles at 60° C. for 13 days", "format": "physicochemical", "conditions": "sealed bottle, 13 days at 60° C.", "description": "U2P4.4Na crystals (octahydrate) and a lyophilized product were placed in respective bottles, which were then sealed and allowed to stand for 13 days at 60° C. (acceleration test)."}},
  "data": [
    {"smiles": "O=c1ccn([C@@H]2O[C@H](COP(=O)([O-])OP(=O)([O-])OP(=O)([O-])OP(=O)([O-])OC[C@H]3O[C@@H](n4ccc(=O)[nH]c4=O)C(O)C3O)C(O)C2O)c(=O)[nH]1.[Na+].[Na+].[Na+].[Na+]", "note": "(stereo partly drawn) [U2P4.4Na crystals (octahydrate), P^1,P^4-di(uridine 5′-)tetraphosphate tetrasodium salt]", "values": [
      {"measurement": "decomposition or change in weight on standing", "setting": "[1]; nine days, 25° C. and a relative humidity of 57%", "value": "No decomposition or change in weight"},
      {"measurement": "decomposition or change in weight on standing", "setting": "[1]; nine days, 25° C. and a relative humidity of 75%", "value": "No decomposition or change in weight"},
      {"measurement": "decomposition or change in weight on standing", "setting": "[1]; nine days, 40° C. and a relative humidity of 75%", "value": "No decomposition or change in weight"},
      {"measurement": "decomposition", "setting": "[2]", "value": "No decomposition"}
    ]},
    {"smiles": "O=c1ccn([C@@H]2O[C@H](COP(=O)([O-])OP(=O)([O-])OP(=O)([O-])OP(=O)([O-])OC[C@H]3O[C@@H](n4ccc(=O)[nH]c4=O)C(O)C3O)C(O)C2O)c(=O)[nH]1.[Na+].[Na+].[Na+].[Na+]", "note": "(stereo partly drawn) [U2P4.4Na crystals (tetrahydrate), P^1,P^4-di(uridine 5′-)tetraphosphate tetrasodium salt]", "values": [
      {"measurement": "water content after standing", "setting": "[1]; nine days, 40° C. and a relative humidity of 75%, initial water content approximately 8% (tetrahydrate)", "value": "14-15%"}
    ]},
    {"smiles": "O=c1ccn([C@@H]2O[C@H](COP(=O)([O-])OP(=O)([O-])OP(=O)([O-])OP(=O)([O-])OC[C@H]3O[C@@H](n4ccc(=O)[nH]c4=O)C(O)C3O)C(O)C2O)c(=O)[nH]1.[Na+].[Na+].[Na+].[Na+]", "note": "(stereo partly drawn) [lyophilized product, P^1,P^4-di(uridine 5′-)tetraphosphate tetrasodium salt, reference compound]", "values": [
      {"measurement": "state of the product on storage", "setting": "[1]; 40° C. and a relative humidity of 75%, on the seventh day of storage", "value": "mud-like state due to deliquescence"},
      {"measurement": "change of water content on standing", "setting": "[1]; nine days, 40° C. and a relative humidity of 75%, initial water content approximately 1%", "value": "increased gradually"},
      {"measurement": "decomposition", "setting": "[2]", "value": "partial decomposition"},
      {"measurement": "weight loss of U2P4.4Na", "setting": "[2]", "value": "approximately 1.4%"}
    ]}
  ]
}
